Results published in US10093621B2, “4-oxo-N-(4-hydroxyphenyl)retinamide derivatives as therapeutic agents for the treatment of cancer” (FONDAZIONE IRCCS ISTITUTO NAZIONALE DEI TUMORI, priority 2014, dated 2018).
Values belong to the compound of their own block, whether it stands above or below them.

Assays:
A2780 = assay: Antiproliferative activity, sulphorhodamine B assay, 72 hours of treatment; format: cell-based; conditions: A2780 (ovary)
Protocol: (§1) The antiproliferative activity of the various compounds 1a-c (in both monotherapy and combined treatment) on the different tumour cell lines was evaluated by sulphorhodamine B assay after 72 hours of treatment, and the dose able to inhibit 50% of growth (IC50) was calculated for the monotherapy (the results are summarized in Table 1 and Table 3), while the Kern Index (KI) was determined as the synergism/antagonism […] index for the combined treatment (the results are depicted in FIG. 2).

[1] = tested on: ovarian cancer cells (A2780); assay: Cell cycle and apoptosis in ovarian cancer cells; format: cell-based
[2] = In vivo plasma levels by HPLC after i.p. administration; set-up: species or system nude mice; conditions: for Plasma level: 5 hours after last administration, 5% DMSO, H2O
Protocol: To evaluate the plasma levels of salt 1a, 4-oxo-4-HPR (120 mg/kg) and salt 1a (sodium 4-aminoxyacetate-4-HPR) (60 and 100 mg/kg) were administered i.p. to nude mice for 4 consecutive days (once a day), and the plasma levels were evaluated by HPLC 5 hours after the last administration (the results are summarized in Table 2).

T47-D = assay: Antiproliferative activity, sulphorhodamine B assay, 72 hours of treatment; format: cell-based; conditions: T47-D (breast)
Protocol: as §1

IGROV-1 = assay: as above; format: cell-based, human; conditions: IGROV-1 (ovary)
Protocol: as §1

MDA-MB-231 = assay: as above; format: cell-based, human; conditions: MDA-MB-231 (breast)
Protocol: as §1

BT-474 = assay: as above; format: cell-based; conditions: BT-474 (breast)
Protocol: as §1

JVM-2 = assay: as above; format: cell-based; conditions: JVM-2 (lymphoma)
Protocol: as §1

MESO = assay: as above; format: cell-based; conditions: MESO (mesothelioma)
Protocol: as §1

SK-N-BE = assay: as above; format: cell-based; conditions: SK-N-BE (neuroblastoma)
Protocol: as §1

SK-N-SH = assay: as above; format: cell-based; conditions: SK-N-SH (neuroblastoma)
Protocol: as §1

SKOV-3 = assay: as above; format: cell-based; conditions: SKOV-3 (ovary)
Protocol: as §1

Sk-N-5Y = assay: as above; format: cell-based; conditions: Sk-N-5Y (neuroblastoma)
Protocol: as §1

STO = assay: as above; format: cell-based, human; conditions: STO (mesothelioma)
Protocol: as §1

[3] = tested on: human mesothelioma (STO) cells; assay: In vivo antitumor activity, mesothelioma xenograft (s.c.); set-up: species or system mice; conditions: 30 and 60 mg/kg i.p., 5 days/week for 4 weeks
Protocol: As regards to mesothelioma, the mice were inoculated s.c. with STO cells, and treatment with the salt 1a began one day after tumor cell inoculation (doses: 30 and 60 mg/kg i.p.; 5 days/week for 4 weeks). The control mice were treated with the same solvent as used to dissolve the salt. The animals were examined twice a week to check their weight and any signs of toxicity. Tumour growth in the various groups (control and treated) was evaluated, and the differences were statistically analysed (the results are shown in FIG. 3a).

[4] = tested on: ovarian cancer (IGROV-1) cells; format: in vivo
Protocol: For the ovarian model, nude mice were inoculated i.p. with IGROV-1 cells, and treatment with the salt 1a began one day after tumor cell inoculation (doses: 30, 60 and 90 mg/kg i.p.; 5 days/week for 4 weeks). The control mice were treated with the same solvent as used to dissolve the salt. The animals were examined twice a week to check their weight and any signs of toxicity. The survival time of the various groups (control and treated) was evaluated, and the differences were statistically analysed.

[5] = tested on: human breast cancer cells (MDA-MB-231); assay: In vivo antitumor activity, breast cancer model (mammary fat pad); conditions: 90 mg/kg
Protocol: As regards the breast cancer model, human breast cancer cells (MDA-MB-231) were inoculated into the mammary fat pad of NOD/SCID-gamma mice, and treatment with the salt 1a began one week after tumor cell inoculation (dose: 90 mg/kg; 4 days/week for 5 weeks). The animals were examined twice a week to check their weight and any signs of toxicity. Tumour growth in the various groups (control and treated) was evaluated, and the differences were statistically analysed.

ROS = ROS generation, CM-H2DCFDA probe, FACS; format: cell-based; conditions: 5 hours of treatment
Protocol: (§2) As regards to the evaluation of the mechanism of action, ROS generation was determined after 5 hours of treatment with the use of the 5-(and -6)-chloromethyl-2′, 7′-dichlorodihydrofluorescein diacetate (CM-H2DCFDA) probe, while the cell cycle was evaluated by staining with propidium iodide. Cytofluorimetric analysis (FACS) was conducted in both cases.

cell cycle = assay: Cell cycle, propidium iodide staining, FACS; format: cell-based
Protocol: as §2

[6] = tested on: tumour cell lines of different histotypes; assay: Antiproliferative activity of combined treatment, sulphorhodamine B assay, Kern Index; format: cell-based; conditions: 72 hours, preliminary
Protocol: as §1

Structure (SMILES): CC(C=CC1=C(C)C(=NOCCN)CCC1(C)C)=CC=CC(C)=CC(=O)Nc1ccc(O)cc1 [Compound 1d, 9-[3-(2-Amino-ethoxyimino)-2,6,6-trimethyl-cyclohex-1-enyl]-3,7-dimethylnona-2,4,6,8-tetraenoic acid (4-hydroxy-phenyl)amide]
IC50 (A2780; Homo sapiens): 955 nM
Apoptotic activity (sub-G1 peak) [1]: apoptotic (sub-G1 peak)
Cell cycle arrest [1]: induced a cycle arrest in G2-M
melting point: 134 °C

Structure (SMILES): CC1=C(/C=C/C(C)=C/C=C/C(C)=C/C(=O)Nc2ccc(O)cc2)C(C)(C)CCC1=O [Compound 4-oxo-4-HPR, 4-oxo-N-(4-hydroxyphenyl)retinamide]
Plasma level ([2]; i.p. once a day for 4 days, 5% cremophor): 0.8 μM ± 0.4
Accumulation of the compound in proximity to the inoculation site ([2]; treated mice, i.p.): observed

Structure (SMILES): CC1=C(/C=C/C(C)=C/C=C/C(C)=C/C(=O)Nc2ccc(O)cc2)C(C)(C)CCC1=NOCC(=O)[O-].[Na+] [Salt 1a]
IC50 (A2780): 2780 nM
IC50 (BT-474): 3690 nM
IC50 (JVM-2): 1110 nM
IC50 (MESO): 1280 nM
IC50 (SK-N-BE): 1550 nM
IC50 (SK-N-SH): 1900 nM
IC50 (SKOV-3): 5960 nM
IC50 (Sk-N-5Y): 1300 nM
IC50 (T47-D): 3950 nM
IC50 (IGROV-1): 3820 nM
IC50 (MDA-MB-231): 3970 nM
IC50 (STO): 1480 nM
Plasma level ([2]; 60 mg/Kg i.p. once a day for 4 days): 60.3 μM ± 2.52
Plasma level ([2]; 100 mg/Kg i.p. once a day for 4 days): 63.7 μM ± 2.08
Toxicity for the animals ([2]; daily doses of 60 and 100 mg/kg): does not possess high toxicity
Solubility compared with the parent compound ([2]; from in vivo experiments in murine models): far more soluble than the parent compound
Plasma levels, times higher than 4-oxo-4-HPR ([2]; murine models, versus 4-oxo-4-HPR): up to 60 times
Tumour growth [3]: activity trend of the compound, although it did not reach statistical significance
Survival of the mice ([4]; IGROV-1 i.p., doses of 60 and 90 mg/kg i.p., 5 days/week for 4 weeks, p<0.01): significantly increased the survival
Signs of toxicity ([4]; IGROV-1 model, 60 and 90 mg/kg): without any evident signs of severe toxicity
Tumour growth ([5]; MDA-MB-231, 4 days/week for 5 weeks, p=0.01): reduced tumour growth
Signs of toxicity ([5]; MDA-MB-231 model): without evident signs of severe toxicity
ROS generation (pro-apoptotic activity) (ROS): the generation of ROS
Cell cycle arrest during the mitotic phase (antitubulin activity) (cell cycle): the cell cycle arrest during the mitotic phase
Activity of combined treatment (Kern Index) ([6]; combined with 4-HPR): synergic activity
Activity of combined treatment (Kern Index) ([6]; combined with cisplatin): synergic activity
Activity of combined treatment (Kern Index) ([6]; combined with paclitaxel): synergic activity

Further lines, with some results ahead:

IC50 (A2780): 3590 nM
IC50 (MDA-MB-231): 4260 nM
Structure (SMILES): CC1=C(/C=C/C(C)=C/C=C/C(C)=C/C(=O)Nc2ccc(O)cc2)C(C)(C)CCC1=NOCCCC(=O)O [LOM1098]
IC50 (T47-D): 4200 nM
IC50 (IGROV-1): 3540 nM

IC50 (A2780): 2370 nM
IC50 (MDA-MB-231): 2950 nM
Structure (SMILES): CCCCC(ON=C1CCC(C)(C)C(/C=C/C(C)=C/C=C/C(C)=C/C(=O)Nc2ccc(O)cc2)=C1C)C(=O)O (centres unmarked) [LOM1133]
IC50 (T47-D): 3000 nM
IC50 (IGROV-1): 2190 nM
